Reference: patent publication US10954221B2, “GLP-1R agonists and uses thereof” (QILU REGOR THERAPEUTICS INC., priority 2019, dated 2021)

Target: GLP1R (Homo sapiens, UniProt P43220)
Assay: GLP1R cAMP assay (HTRF), HEK293/GLP-1R/CRE/Luc, Clone 4

GLP1R, sequence (P43220 24-463): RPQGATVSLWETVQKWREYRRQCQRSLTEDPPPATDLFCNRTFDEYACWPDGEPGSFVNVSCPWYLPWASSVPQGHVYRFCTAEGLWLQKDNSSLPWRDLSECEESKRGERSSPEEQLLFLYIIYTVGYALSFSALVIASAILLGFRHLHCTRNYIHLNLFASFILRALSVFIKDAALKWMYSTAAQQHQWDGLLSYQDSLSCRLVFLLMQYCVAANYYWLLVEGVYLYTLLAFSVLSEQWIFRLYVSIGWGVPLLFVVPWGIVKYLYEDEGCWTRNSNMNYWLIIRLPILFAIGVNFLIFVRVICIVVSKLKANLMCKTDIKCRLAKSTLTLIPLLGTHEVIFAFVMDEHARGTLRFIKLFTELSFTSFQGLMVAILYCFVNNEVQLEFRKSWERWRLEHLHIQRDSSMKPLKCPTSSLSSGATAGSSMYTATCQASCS

EC50 [nM]	SMILES
< 15	CC1(c2ccc(Cl)cc2F)Oc2cccc(C3=CCN(Cc4nc5ccc(C(=O)O)cc5n4C[C@@H]4CCO4)CC3)c2O1 (stereo partly drawn) [Compound 330, 2-((4-(2-(4-chloro-2-fluorophenyl)-2-methylbenzo[d][1,3]dioxol-4-yl)-5,6-dihydropyridin-1(2H)-yl)methyl)-1-((S)-oxetan-2-ylmethyl)-1H-benzo[d]imidazole-6-carboxylic acid]
< 15	O=C(O)c1ccc2nc(Cc3ccc(-c4cccc(OCc5ccc(Cl)cc5F)n4)cc3F)n(C[C@@H]3CCO3)c2c1F [Compound 309, (S)-2-(4-(6-((4-chloro-2-fluorobenzyl)oxy)pyridin-2-yl)-2-fluorobenzyl)-7-fluoro-1-(oxetan-2-ylmethyl)-1H-benzo[d]imidazole-6-carboxylic acid]
15 to 150	N#Cc1ccc(COc2cccc(N3CCC(=Cc4nc5ccc(C(=O)O)nc5n4C[C@@H]4CCO4)CC3)n2)c(F)c1 [Compound 314, (S)-2-((1-(6-(4-cyano-2-fluorobenzyloxy)pyridin-2-yl)piperidin-4-ylidene)methyl)-3-(oxetan-2-ylmethyl)-3H-imidazo [4,5-b] pyridine-S-carboxylic acid]
15 to 150	N#Cc1cnc(COc2nc(-c3ccc(Cc4nc5ccc(C(=O)O)nc5n4C[C@@H]4CCO4)cc3F)ncc2F)c(F)c1 [Compound 302, (S)-2-(4-(4-((5-cyano-3-fluoropyridin-2-yl)methoxy)-5-fluoropyrimidin-2-yl)-3-fluorobenzyl)-3-(oxetan-2-ylmethyl)-3H-imidazo[4,5-b]pyridine-5-carboxylic acid]
15 to 150	N#Cc1ccc(COc2cccc(-c3ccc(Nc4nc5ccc(C(=O)O)cc5n4C[C@@H]4CCO4)c(F)c3)n2)c(F)c1 [Compound 320, (S)-2-((4-(6-((4-cyano-2-fluorobenzyl)oxy)pyridin-2-yl)-2-fluorophenyl)amino)-1-(oxetan-2-ylmethyl)-1H-benzo[d]imidazole-6-carboxylic acid]
15 to 150	O=C(O)c1ccc2nc(CN3CC=C(c4cccc(OCc5ccc(Cl)cc5F)n4)CC3)c(Cc3cocn3)n2c1 [Compound 327, 2-((6-((4-chloro-2-fluorobenzyl)oxy)-3′,6′-dihydro-[2,4′-bipyridin]-1′(2′H)-yl)methyl)-3-(oxazol-4-ylmethyl)imidazo[1,2-a]pyridine-6-carboxylic acid]
15 to 150	N#Cc1ccc(COc2cccc(N3CCC(=Cc4nc5ccc(C(=O)O)c(F)c5n4C[C@@H]4CCO4)CC3)n2)nc1 [Compound 318, (S)-2-((1-(6-((5-cyanopyridin-2-yl)methoxy)pyridin-2-yl)piperidin-4-ylidene)methyl)-7-fluoro-1-(oxetan-2-ylmethyl)-1H-benzo[d]imidazole-6-carboxylic acid]

The next lines start with the molecule.

SMILES	EC50 [nM]
O=C(O)c1ccc2nc(CN3CC=C(c4csc(OCc5ccc(OC(F)(F)F)cc5)n4)CC3)n(C[C@@H]3CCO3)c2c1 [Compound 251, (S)-1-(oxetan-2-ylmethyl)-2-((4-(2-((4-(trifluoromethoxy)benzyl)oxy)thiazol-4-yl)-3,6-dihydropyridin-1(2H)-yl)methyl)-1H-benzo[d]imidazole-6-carboxylic acid]	15 to 150
O=C(O)c1ccc2nc(Cc3ccc(-c4nc(OCc5ccc(Cl)cc5F)c(F)cc4F)cc3F)n(C[C@@H]3CCO3)c2n1 [Compound 299, (S)-2-(4-(6-(4-chloro-2-fluorobenzyloxy)-3,5-difluoropyridin-2-yl)-2-fluorobenzyl)-3-(oxetan-2-ylmethyl)-3H-imidazo [4,5-b]pyridine-S-carboxylic acid]	< 15
O=C(O)c1ccc2nc(CN3CC=C(c4coc(OCc5ccc(Cl)cc5F)n4)CC3)n(C[C@@H]3CCO3)c2c1 [Compound 248, (S)-2-((4-(2-((4-chloro-2-fluorobenzyl)oxy)oxazol-4-yl)-5,6-dihydropyridin-1(2H)-yl)methyl)-1-(oxetan-2-ylmethyl)-1H-benzo[d]imidazole-6-carboxylic acid]	> 1000
O=C(O)c1ccc2nc(CN3CC=C(c4nc(OCc5ccc(Cl)cc5F)cs4)CC3)n(C[C@@H]3CCO3)c2c1 [Compound 246, (S)-2-((4-(4-((4-chloro-2-fluorobenzyl)oxy)thiazol-2-yl)-3,6-dihydropyridin-1(2H)-yl)methyl)-1-(oxetan-2-ylmethyl)-1H-benzo[d]imidazole-6-carboxylic acid]	15 to 150
O=C(O)c1ccc2nc(CN3CC=C(c4csc(OCc5ccc(F)cc5F)n4)CC3)n(C[C@@H]3CCO3)c2c1 [Compound 252, (S)-2-((4-(2-((2,4-difluorobenzyl)oxy)thiazol-4-yl)-3,6-dihydropyridin-1(2H)-yl)methyl)-1-(oxetan-2-ylmethyl)-1H-benzo[d]imidazole-6-carboxylic acid]	15 to 150
O=C(O)c1ccc2nc(CN3CC=C(c4csc(OCc5ccc(C(F)(F)F)nc5)n4)CC3)n(C[C@@H]3CCO3)c2c1 [Compound 255, (S)-1-(oxetan-2-ylmethyl)-2-((4-(2-((6-(trifluoromethyl)pyridin-3-yl)methoxy)thiazol-4-yl)-3,6-dihydropyridin-1(2H)-yl)methyl)-1H-benzo[d]imidazole-6-carboxylic acid]	15 to 150
Cc1cc(Cc2nc3ccc(C(=O)O)cc3n2C[C@@H]2CCO2)ccc1-c1cccc(OCc2ccc(Cl)cc2F)n1 [Compound 270, (S)-2-(4-(6-((4-chloro-2-fluorobenzyl)oxy)pyridin-2-yl)-3-methylbenzyl)-1-(oxetan-2-ylmethyl)-1H-benzo[d]imidazole-6-carboxylic acid]	< 15
O=C(O)c1ccc2nc(Cc3ccc(-c4nccc(OCc5ccc(Cl)cc5F)n4)c(F)c3)n(C[C@@H]3CCO3)c2c1 [Compound 259, (S)-2-(4-(4-((4-chloro-2-fluorobenzyl)oxy)pyrimidin-2-yl)-3-fluorobenzyl)-1-(oxetan-2-ylmethyl)-1H-benzo[d]imidazole-6-carboxylic acid]	< 15
O=C(O)c1ccc2nc(CN3CC=C(c4csc(OCc5ccc(Br)cn5)n4)CC3)n(C[C@@H]3CCO3)c2c1 [Compound 253, (S)-2-((4-(2-((5-bromopyridin-2-yl)methoxy)thiazol-4-yl)-3,6-dihydropyridin-1(2H)-yl)methyl)-1-(oxetan-2-ylmethyl)-1H-benzo[d]imidazole-6-carboxylic acid]	15 to 150
O=C(O)c1ccc2nc(Cc3cc(F)c(-c4cccc(OCc5ccc(Cl)cn5)n4)cc3F)n(C[C@@H]3CCO3)c2c1 [Compound 269, (S)-2-(4-(6-((5-chloropyridin-2-yl)methoxy)pyridin-2-yl)-2,5-difluorobenzyl)-1-(oxetan-2-ylmethyl)-1H-benzo[d]imidazole-6-carboxylic acid]	< 15
N#Cc1ccc(COc2ccc(F)c(-c3ccc(Cc4nc5ccc(C(=O)O)cc5n4C[C@@H]4CCO4)c(F)c3)n2)c(F)c1 [Compound 268, (S)-2-(4-(6-((4-cyano-2-fluorobenzyl)oxy)-3-fluoropyridin-2-yl)-2-fluorobenzyl)-1-(oxetan-2-ylmethyl)-1H-benzo[d]imidazole-6-carboxylic acid]	< 15
O=C(O)c1ccc2nc(Cc3ccc(-c4nc(OCc5ccc(Cl)cc5F)ccc4F)c(F)c3)n(C[C@@H]3CCO3)c2c1 [Compound 261, (S)-2-(4-(6-(4-chloro-2-fluorobenzyloxy)-3-fluoropyridin-2-yl)-3-fluorobenzyl)-1-(oxetan-2-ylmethyl)-1H-benzo[d]imidazole-6-carboxylic acid]	< 15
